Measured values: US11472803B2, “7-substituted 1-aryl-naphthyridine-3-carboxylic acid amides and use thereof” (Bayer Aktiengesellschaft, priority 2016, dated 2022)

Experiments:
human M2 receptor [1] = molecular target: T1, human M2 receptor (Homo sapiens, UniProt P08172); assay: Functional M2-GIRK1/4 activation test: positive cooperativity (α factor), shift of acetylcholine dose-response curve; assay type: cell-based; settings: Allosteric EC50 shift of acetylcholine 8-point dose-response curve; CHO-DUKX-M2-GIRK cells; α>1 = positive cooperativity
T1 construct: expressed in transfected cells; host or cells: CHO-DUKX (CHO-DUKX-M2-GIRK)
T1 sequence (P08172 1-466): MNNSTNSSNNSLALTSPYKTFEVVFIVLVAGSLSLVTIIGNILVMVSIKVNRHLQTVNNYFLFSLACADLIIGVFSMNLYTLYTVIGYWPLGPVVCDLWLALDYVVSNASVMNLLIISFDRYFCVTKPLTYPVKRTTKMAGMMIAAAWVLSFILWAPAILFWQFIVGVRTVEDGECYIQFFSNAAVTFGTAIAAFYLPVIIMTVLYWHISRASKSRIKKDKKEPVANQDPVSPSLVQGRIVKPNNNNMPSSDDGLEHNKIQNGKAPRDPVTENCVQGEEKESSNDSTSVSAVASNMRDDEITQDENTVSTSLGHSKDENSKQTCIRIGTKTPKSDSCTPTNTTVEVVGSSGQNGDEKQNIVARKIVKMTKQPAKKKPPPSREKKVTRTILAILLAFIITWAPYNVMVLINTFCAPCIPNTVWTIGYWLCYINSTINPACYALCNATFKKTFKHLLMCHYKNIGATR
Description: The binding of orthosteric agonists (endogenous ligand: acetylcholine) to the M2 receptor leads to receptor activation or a change in conformation of the receptor in the manner of a shift in equilibrium in favour of the active receptor conformation.
The agonist-induced change in conformation of the M2 receptor results in a Gαi protein activation. […] Under physiological conditions, the result is then a selective efflux of potassium from the cell along the electrochemical gradient. […] The extent of hyperpolarization can therefore be regarded as a measure of the activation of the M2 receptor.
The test cell used is a recombinant CHO-DUKX cell line which has been stably transfected with cDNA coding for the human M2 receptor and with cDNA coding for both GIRK1/4 subunits (CHO-DUKX-M2-GIRK). The transmembrane potential, or the relative changes in the transmembrane potential as a function of substance addition or M2 activation, is determined by means of a voltage-sensitive dye (FLIPR Membrane Potential Assay Kit Blue, Molecular Devices #R8034) and the measurement of cell fluorescence using a proprietary fluorescence imaging instrument.
In accordance with the desired test concentrations, the substances were pre-diluted in loading buffer (see above).
The sowing medium consisted of MEM alpha medium (supplemented with 5% PCS, 2% Glutamax, no genticin).
For the particular measurement, the medium was removed and the cells were laden with the volt-age-sensitive dye for at least 6 min at room temperature (30 μl of loading buffer per 384-well). This was followed, in a first measurement, by the determination of the resting transmembrane potential for a period of 5 sec in 1 sec increments. Thereafter, 10 μl in each case of the test substances diluted in loading buffer are added, followed by a second measurement to determine the transmembrane potential for a period of 50 sec in 1 sec increments.
Finally, the cells are admixed with 10 μl of agonist solution (acetylcholine dissolved in loading buffer). In contrast to the EC50 determination of the test substances (see B-1.1), however, this is not done using one acetylcholine concentration; instead, every concentration of the test substance is combined with an acetylcholine 8-point dose-response curve. […] The M2-mediated GIRK1/4 activation or hyperpolarization is then monitored in a third measurement over a period of 60 sec in 1 sec increments. The shift in the acetylcholine dose-response curve in the presence of increasing concentrations of the test substance is analysed and quantified by means of GraphPad PRISM (Allosteric EC50 shift). […] Positive cooperativity is the hallmark of a positive allosteric modulator. […] The greater the magnitude of the α value, the greater the extent of cooperativity between orthosteric and allosteric.

human M2 receptor [2] = molecular target: T1, human M2 receptor; assay: Functional M2-GIRK1/4 activation test: allosteric potency (EC50) and efficiency at EC20 acetylcholine; assay type: cell-based; settings: CHO-DUKX-M2-GIRK cells; for EC50: voltage-sensitive dye, acetylcholine at EC20, in some cases mean of two or more determinations; for Emax: boosting of the acetylcholine effect at EC20 acetylcholine concentration
In short: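 Positive allosteric modulation measured as boosting of an EC20 acetylcholine response: hyperpolarization via GIRK1/4 in CHO-DUKX-M2-GIRK cells, monitored by membrane-potential dye fluorescence over 60 s after agonist, compound preadded. Hill-function fit gives EC50 and efficiency.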

Compound | Cooperativity (alpha factor) (human M2 receptor [1]) | EC50 (human M2 receptor [2]) [nM] | Emax (human M2 receptor [2]) [%]
CC(C)C(NC(=O)c1cn(-c2c(F)cc(F)cc2F)c2nc(N3C[C@@H](O)[C@H](O)C3)c(F)cc2c1=O)C(C)C [Example 24, 7-[(3R,4R)-3,4-dihydroxypyrrolidin-1-yl]-N-(2,4-dimethylpentan-3-yl)-6-fluoro-4-oxo-1-(2,4,6-trifluorophenyl)-1,4-dihydro-1,8-naphthyridine-3-carboxamide] | 57 | 1.35 | 100
CC(C)(NC(=O)c1cn(-c2c(F)cc(F)cc2F)c2nc(N3C[C@@H](O)[C@H](O)C3)c(F)cc2c1=O)C1CC1 [Example 25, N-(2-cyclopropylpropan-2-yl)-7-[(3R,4R)-3,4-dihydroxypyrrolidin-1-yl]-6-fluoro-4-oxo-1-(2,4,6-trifluorophenyl)-1,4-dihydro-1,8-naphthyridine-3-carboxamide] | 45 | 4.05 | 95
CC1(O)CN(c2nc3c(cc2F)c(=O)c(C(=O)N[C@@H](C2CC2)C(F)(F)F)cn3-c2c(F)cc(F)cc2F)C1 [Example 53, N-[(1S)-1-Cyclopropyl-2,2,2-trifluoroethyl]-6-fluoro-7-(3-hydroxy-3-methylazetidin-1-yl)-4-oxo-1-(2,4,6-trifluorophenyl)-1,4-dihydro-1,8-naphthyridine-3-carboxamide] | 30 | 16 | 100
O=C(N[C@@H](C1CC1)C(F)(F)F)c1cn(-c2c(F)cc(F)cc2F)c2nc(N3CC(O)C3)c(F)cc2c1=O [Example 54, N-[(1S)-1-Cyclopropyl-2,2,2-trifluoroethyl]-6-fluoro-7-(3-hydroxyazetidin-1-yl)-4-oxo-1-(2,4,6-trifluorophenyl)-1,4-dihydro-1,8-naphthyridine-3-carboxamide] | 30 | 25 | 100
CC(C)(C)NC(=O)c1cn(-c2c(F)cc(F)cc2F)c2nc(N3C[C@@H](O)[C@H](O)C3)c(F)cc2c1=O [Example 90, N-tert-Butyl-7-[(3R,4R)-3,4-dihydroxypyrrolidin-1-yl]-6-fluoro-4-oxo-1-(2,4,6-trifluoro-phenyl)-1,4-dihydro-1,8-naphthyridine-3-carboxamide] | 30 | 18.5 | 95
CC[C@H](NC(=O)c1cn(-c2c(F)cc(F)cc2F)c2nc(N3C[C@@H](O)[C@@H](O)C3)c(F)cc2c1=O)C(F)(F)F [Example 98, 7-[(3R,4S)-3,4-Dihydroxypyrrolidin-1-yl]-6-fluoro-4-oxo-N-[(2S)-1,1,1-trifluorobutan-2-yl]-1-(2,4,6-trifluorophenyl)-1,4-dihydro-1,8-naphthyridine-3-carboxamide] | 50 | 14.3 | 98
O=C(N[C@@H](C1CC1)C(F)(F)F)c1cn(-c2c(F)cc(F)cc2F)c2nc(N3CC[C@H](O)C3)c(F)cc2c1=O [Example 108, N-[(1S)-1-Cyclopropyl-2,2,2-trifluoroethyl]-6-fluoro-7-[(3S)-3-hydroxypyrrolidin-1-yl]-4-oxo-1-(2,4,6-trifluorophenyl)-1,4-dihydro-1,8-naphthyridine-3-carboxamide] | 47 | 5.4 | 96

Other lines, results leading:

Cooperativity (alpha factor) (human M2 receptor [1]) | EC50 (human M2 receptor [2]) [nM] | Emax (human M2 receptor [2]) [%] | Compound
43 | 20.5 | 99 | C[C@H](NC(=O)c1cn(-c2c(F)cc(F)cc2F)c2nc(N3C[C@@H](O)[C@H](O)C3)c(F)cc2c1=O)C(F)(F)F [Example 18, 7-[(3R,4R)-3,4-dihydroxypyrrolidin-1-yl]-6-fluoro-4-oxo-1-(2,4,6-trifluorophenyl)-N-[(2S)-1,1,1-trifluoropropan-2-yl]-1,4-dihydro-1,8-naphthyridine-3-carboxamide]
42 | 10 | 95 | CC(C)(NC(=O)c1cn(-c2c(F)cc(F)cc2F)c2nc(N3C[C@@H](O)[C@H](O)C3)c(F)cc2c1=O)C(F)F [Example 22, N-(1,1-difluoro-2-methylpropan-2-yl)-7-[(3R,4R)-3,4-dihydroxypyrrolidin-1-yl]-6-fluoro-4-oxo-1-(2,4,6-trifluorophenyl)-1,4-dihydro-1,8-naphthyridine-3-carboxamide]
41 | 5.5 | 100 | CC(C)(NC(=O)c1cn(-c2c(F)cc(F)cc2F)c2nc(N3C[C@@H](O)[C@H](O)C3)c(F)cc2c1=O)C(F)(F)F [Example 23, 7-[(3R,4R)-3,4-dihydroxypyrrolidin-1-yl]-6-fluoro-4-oxo-N-(1,1,1-trifluoro-2-methylpropan-2-yl)-1-(2,4,6-trifluorophenyl)-1,4-dihydro-1,8-naphthyridine-3-carboxamide]
51 | 5 | 92 | CC[C@@H](NC(=O)c1cn(-c2c(F)cc(F)cc2F)c2nc(N3C[C@@H](O)[C@H](O)C3)c(F)cc2c1=O)C(F)(F)F [Example 36, 7-[(3R,4R)-3,4-dihydroxypyrrolidin-1-yl]-6-fluoro-4-oxo-N-[(2R)-1,1,1-trifluorobutan-2-yl]-1-(2,4,6-trifluorophenyl)-1,4-dihydro-1,8-naphthyridine-3-carboxamide]
38 | 6 | 100 | O=C(N[C@@H](C1CC1)C(F)(F)F)c1cn(-c2c(F)cc(F)cc2F)c2nc(N3C[C@@H](O)[C@H](O)C3)c(Cl)cc2c1=O [Example 37, 6-chloro-N-[(1S)-1-cyclopropyl-2,2,2-trifluoroethyl]-7-[(3R,4R)-3,4-dihydroxypyrrolidin-1-yl]-4-oxo-1-(2,4,6-trifluorophenyl)-1,4-dihydro-1,8-naphthyridine-3-carboxamide]
37 | 3.3 | 100 | CC(C)(NC(=O)c1cn(-c2c(F)cc(F)cc2Cl)c2nc(N3C[C@@H](O)[C@H](O)C3)c(F)cc2c1=O)C(F)(F)F [Example 41, 1-(2-chloro-4,6-difluorophenyl)-7-[(3R,4R)-3,4-dihydroxypyrrolidin-1-yl]-6-fluoro-4-oxo-N-(1,1,1-trifluoro-2-methylpropan-2-yl)-1,4-dihydro-1,8-naphthyridine-3-carboxamide]
39 | 8.35 | 88 | O=C(N[C@@H](C1CC1)C(F)(F)F)c1cn(-c2c(F)cc(F)cc2F)c2nc(N3CC(CO)(CO)C3)c(F)cc2c1=O [Example 84, 7-[3,3-Bis(hydroxymethyl)azetidin-1-yl]-N-[(1S)-1-cyclopropyl-2,2,2-trifluoroethyl]-6-fluoro-4-oxo-1-(2,4,6-trifluorophenyl)-1,4-dihydro-1,8-naphthyridine-3-carboxamide]
44 | 4.75 | 100 | CCC(C)(C)NC(=O)c1cn(-c2c(F)cc(F)cc2F)c2nc(N3C[C@@H](O)[C@H](O)C3)c(F)cc2c1=O [Example 89, 7-[(3R,4R)-3,4-dihydroxypyrrolidin-1-yl]-6-fluoro-N-(2-methylbutan-2-yl)-4-oxo-1-(2,4,6-tri-fluorophenyl)-1,4-dihydro-1,8-naphthyridine-3-carboxamide]
